Assay results from patent US7348425B2, “Inhibitors of HCV replication” (Bristol-Myers Squibb Company, priority 2004, dated 2008).

What was measured:
[1] = system: HCV replicon; experiment: HCV replicon FRET assay; format: cell-based; details: Hepatitis C virus; FRET assay; read-out: EC50
Description: The IC50 values for compounds were determined using seven different [I]. IC50 values were calculated from the inhibition using the formula y=A+((B−A)/(1+((C/x)^D))). FRET Assay Preparation. To perform the HCV FRET screening assay, 96-well cell culture plates were used. The FRET peptide (Anaspec, Inc.) (Taliani et al., Anal. Biochem. 240:60-67 (1996), hereby incorporated by reference in its entirety) contains a fluorescence donor, EDANS, near one end of the peptide and an acceptor, DABCYL, near the other end. The fluorescence of the peptide is quenched by […] resonance energy transfer (RET) between the donor and the acceptor, but as the NS3 protease cleaves the peptide the products are released from RET quenching and the fluorescence of the donor becomes apparent. The assay reagent was made as follows: 5× cell Luciferase cell culture lysis reagent from Promega (#E153A) diluted to 1× with dH2O, NaCl added to 150 mM final, the FRET peptide diluted to 20 uM final from a 2 mM stock.
To prepare plates, HCV replicon cells, with or without a Renilla luciferase reporter gene, were trypsinized and placed into each well of a 96-well plate with titrated test compounds added in columns 3 through 12; columns 1 and 2 contained a control compound (HCV protease inhibitor), and the bottom row contained cells without compound. The plates were then placed in a CO2 incubator at 37 degrees C.
Assays. Subsequent to addition of the test compounds described above (FRET Assay Preparation), at various times the plate was removed and Alamar blue solution (Trek Diagnostics, #00-100) was added per well as a measure of cellular toxicity. After reading in a Cytoflour 4000 instrument (PE Biosystems), plates were rinsed with PBS and then used for FRET assay by the addition of 30 ul of the FRET peptide assay reagent described above (FRET Assay Preparation) per well. The plate was then placed into the Cytoflour 4000 instrument which had been set to 340 excite/490 emission, automatic mode for 20 cycles and the plate read in a kinetic mode. Typically, the signal to noise using an endpoint analysis after the reads was at least three-fold. Alternatively, after Alamar blue reading, plates were rinsed with PBS, 50 ul of DMEM (high glucose) without phenol red was added and plates were then used for luciferase assay using the Promega Dual-Glo Luciferase Assay System.
Compound analysis was determined by quantification of the relative HCV replicon inhibition and the relative cytotoxicity values. To calculate cytoxicity values, the average Alamar Blue fluorescence signals from the control wells were set as 100% non-toxic. The individual signals in each of the compound test wells were then divided by the average control signal and multiplied by 100% to determine […]. To calculate the HCV replicon inhibition values, an average background value was obtained from the two wells containing the highest amount of HCV protease inhibitor at the end of the assay period. These numbers were similar to those obtained from naïve Huh-7 cells.
The background numbers were then subtracted from the average signal obtained from the control wells and this number was used as 100% activity. The individual signals in each of the compound test wells were then divided by the averaged control values after background subtraction and multiplied by 100% to determine percent activity. EC50 values for a protease inhibitor titration were calculated as the concentration which caused a 50% reduction in FRET or luciferase activity. The two numbers generated for the compound plate, percent cytoxicity and percent activity were used to determine compounds of interest for further analysis.

[2] = target: T1, HCV NS5B RdRp genotype 1b (Hepatitis C virus genotype 1b, UniProt Q9WMX2); experiment: Modified HCV NS5B RdRp enzyme assay (with preincubation); format: biochemical
T1 construct: The protein was expressed with an 18 amino acid C-terminal truncation to enhance the solubility; made in house; host or cells: E. coli BL21 (DE3), pET21a
Description: HCVNS5B RdRp cloning, expression, and purification. The cDNA encoding the NS5B protein of HCV, genotype 1b, was cloned into the pET21a expression vector. The protein was expressed with an 18 amino acid C-terminal truncation to enhance the solubility. The E. coli competent cell line BL21 (DE3) was used for expression of the protein. Cultures were grown at 37° C. for ˜4 hours until the cultures reached an optical density of 2.0 at 600 nm. The cultures were cooled to 20° C. and induced with 1 mM IPTG. Fresh ampicillin was added to a final concentration of 50 μg/ml and the cells were grown overnight at 20° C.
Cell pellets (3 L) were lysed for purification to yield 15-24 mgs of purified NS5B. The lysis buffer consisted of 20 mM Tris-HCl, pH 7.4, 500 mM NaCl, 0.5% triton X-100, 1 mM DTT, 1 mM EDTA, 20% glycerol, 0.5 mg/ml lysozyme, 10 mM MgCl2, 15 ug/ml deoxyribonuclease I, and Complete TM protease inhibitor tablets (Roche). After addition of the lysis buffer, frozen cell pellets were resuspended using a tissue homogenizer. To reduce the viscosity of the sample, aliquots of the lysate were sonicated on ice using a microtip attached to a Branson sonicator. The sonicated lysate was centrifuged at 100,000×g for 1 hr at 4° C. and filtered through a 0.2 μm filter unit (Corning).
The protein was purified using three sequential chromatography steps: Heparin sepharose CL-6B, polyU sepharose 4B, and Hitrap SP sepharose (Pharmacia). The chromatography buffers were identical to the lysis buffer but contained no lysozyme, deoxyribonuclease I, MgCl2 or protease inhibitor and the NaCl concentration of the buffer was adjusted according to the requirements for charging the protein onto the column. Each column was eluted with a NaCl gradient which varied in length from 5-50 column volumes depending on the column type. After the final chromatography step, the resulting purity of the enzyme is >90% based on SDS-PAGE analysis. The enzyme was aliquoted and stored at −80° C.
Standard HCV NS5B RdRp enzyme assay. HCV RdRp genotype Ib assays were run in a final volume of 60 μl in 96 well plates (Costar 3912). The assay buffer is composed of 20 mM Hepes, pH 7.5, 2.5 mM KCl, 2.5 mM MgCl2, 1 mM DTT, 1.6 U RNAse inhibitor (Promega N2515), 0.1 mg/ml BSA (Promega R3961), and 2% glycerol. All compounds were serially diluted (3-fold) in DMSO and diluted further in water such that the final concentration of DMSO in the assay was 2%. HCV RdRp genotype 1b enzyme was used at a final concentration of 28 nM. A polyA template was used at 6 nM, and a biotinylated oligo-dT12 primer was used at 180 nM final concentration. Template was obtained commercially (Amersham 27-4110). Biotinylated primer was prepared by Sigma Genosys. ^3H-UTP was used at 0.6 μCi (0.29 μM total UTP). Reactions were initiated by the addition of enzyme, incubated at 30° C. for 60 min, and stopped by adding 25 μl of 50 mM EDTA containing SPA beads (4 μg/μl, Amersham RPNQ 0007). Plates were read on a Packard Top Count NXT after >1 hr incubation at room temperature.
Modified HCV NS5B RdRp enzyme assay. A modified enzyme assay was performed essentially as described for the standard enzyme assay except for the following: The biotinylated oligo dT12 primer was precaptured on streptavidin-coated SPA beads by mixing primer and beads in assay buffer and incubating at room temperature for one hour. Unbound primer was removed after centrifugation. The primer-bound beads were resuspended in 20 mM Hepes buffer, pH 7.5 and used in the assay at final concentrations of 20 nM primer and 0.67 μg/μl beads. Order of addition in the assay: enzyme (14 nM) was added to diluted compound followed by the addition of a mixture of template (0.2 nM), ^3H-UTP (0.6 μCi, 0.29 μM), and primer-bound beads, to initiate the reaction; concentrations given are final. Reactions were allowed to proceed for 4 hours at 30° C.
The IC50 values for compounds were determined using seven different [I]. […]

[3] = modified method (with preincubation)

T1 sequence (Q9WMX2 2420-2992): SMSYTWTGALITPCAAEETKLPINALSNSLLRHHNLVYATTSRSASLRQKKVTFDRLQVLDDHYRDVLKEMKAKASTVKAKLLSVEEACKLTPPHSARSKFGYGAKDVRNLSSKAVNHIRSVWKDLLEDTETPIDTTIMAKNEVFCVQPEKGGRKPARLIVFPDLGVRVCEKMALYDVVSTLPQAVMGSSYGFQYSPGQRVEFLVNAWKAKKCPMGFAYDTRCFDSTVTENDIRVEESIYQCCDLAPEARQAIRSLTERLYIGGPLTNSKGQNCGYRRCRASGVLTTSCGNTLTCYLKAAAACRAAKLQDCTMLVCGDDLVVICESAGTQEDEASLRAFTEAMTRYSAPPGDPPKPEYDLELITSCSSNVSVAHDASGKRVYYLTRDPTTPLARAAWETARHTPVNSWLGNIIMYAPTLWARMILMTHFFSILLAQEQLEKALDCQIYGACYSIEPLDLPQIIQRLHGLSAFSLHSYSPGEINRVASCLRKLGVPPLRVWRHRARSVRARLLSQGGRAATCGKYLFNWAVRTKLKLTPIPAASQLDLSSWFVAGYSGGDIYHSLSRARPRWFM

| Compound | EC50 [1] [nM] | further results |
| --- | --- | --- |
| O=C(O)c1ccc2c(C3CCCCC3)c3n(c2c1)C/C=C\COc1ccccc1-3 | 1000 to 10000 |  |
| COC(=O)/C=C/c1ccc(NC(=O)C2(NC(=O)c3ccc4c(C5CCCCC5)c5n(c4c3)CCCn3ccnc3-5)CCCC2)cc1 | 1000 to 10000 |  |
| CC(C)(C)OC(=O)N1CCCCn2c(c(C3CCCCC3)c3ccc(C(=O)NC4(C(=O)Nc5ccc(/C=C/C(=O)O)cc5)CCCC4)cc32)-c2ccccc21 | 1000 to 10000 |  |
| O=C(NC1(C(=O)O)CCCC1)c1ccc2c(C3CCCCC3)c3n(c2c1)CCCCNc1ccccc1-3 | 1000 to 10000 |  |
| COC(=O)/C=C/c1ccc(NC(=O)C2(NC(=O)c3ccc4c(C5CCCCC5)c5n(c4c3)CCCc3nc[nH]c3-5)CCCC2)cc1 | 1000 to 10000 |  |
| O=C(O)/C=C/c1ccc(NC(=O)C2(NC(=O)c3ccc4c(C5CCCCC5)c5n(c4c3)CCCc3nc[nH]c3-5)CCCC2)cc1 | 1000 to 10000 |  |
| O=C(O)c1ccc2c(C3CCCCC3)c3n(c2c1)CCCc1nc[nH]c1-3 | > 10000 |  |
| CN1C(=O)Cn2c(c(C3CCCCC3)c3ccc(C(=O)NS(=O)(=O)N(C)C)cc32)-c2ccccc21 | 10 to 1000 |  |
| O=C(O)c1ccc(-c2cnc(NC(=O)C3(NC(=O)c4ccc5c(C6CCCCC6)c6n(c5c4)CC=Cc4ccccc4-6)CCCC3)s2)cc1 | 10 to 1000 |  |
| O=C(NC1(C(=O)Nc2nccs2)CCCC1)c1ccc2c(C3CCCCC3)c3n(c2c1)CC=Cc1ccccc1-3 | 10 to 1000 |  |
| O=C(NC1(C(=O)O)CCNCC1)c1ccc2c(C3CCCCC3)c3n(c2c1)CC=Cc1ccccc1-3 | 1000 to 10000 |  |
| O=C(O)c1ccc2c(C3CCCCC3)c3n(c2c1)CCCc1nccnc1-3 | 1000 to 10000 |  |
| O=C(O)c1ccc2c(C3CCCCC3)c3n(c2c1)CCNc1ccccc1-3 | 1000 to 10000 |  |
| COC(=O)/C=C/c1ccc(NC(=O)C2(NC(=O)c3ccc4c(C5CCCCC5)c5n(c4c3)CCCc3nccnc3-5)CCCC2)cc1 | 1000 to 10000 |  |
| COC(=O)/C=C/c1ccc(NC(=O)C2(NC(=O)c3ccc4c(C5CCCCC5)c5n(c4c3)CC(C(=O)NCCN(C)C)=Cc3ccccc3-5)CCCC2)cc1 | 10 to 1000 |  |
| COC(=O)/C=C/c1ccc(NC(=O)C2(NC(=O)c3ccc4c(C5CCCCC5)c5n(c4c3)CC(=O)N(C)c3ccccc3-5)CCCC2)cc1 | 10 to 1000 |  |
| Cn1c(C(=O)O)cc2cc(NC(=O)C3(NC(=O)c4ccc5c(C6CCCCC6)c6n(c5c4)CC(=O)Nc4ccccc4-6)CCCC3)ccc21 | 10 to 1000 | IC50 [2, 3]: 20 to 1000 nM |
| COC(=O)c1ccc2c(C3CCCCC3)c3n(c2c1)CC(C(=O)N1CCOCC1)=Cc1ccc(Cl)cc1-3 |  | IC50 [2, 3]: > 1000 nM |
| CCOC(=O)/C=C/c1ccc(NC(=O)C2(NC(=O)c3ccc4c(C5CCCCC5)c5n(c4c3)CCN(C(=O)OC(C)(C)C)c3ccccc3-5)CCCC2)cc1 | 10 to 1000 |  |

| Compound | EC50 [1] [nM] | further results |
| --- | --- | --- |
| CCOC(=O)/C=C/c1ccc(NC(=O)C2(NC(=O)c3ccc4c(C5CCCCC5)c5n(c4c3)CCNc3ccccc3-5)CCCC2)cc1 | 10 to 1000 |  |
| O=C(O)c1ccc2c(C3CCCCC3)c3n(c2c1)C(=O)NCc1ccccc1-3 | > 10000 |  |
| CN1Cc2ccccc2-c2c(C3CCCCC3)c3ccc(C(=O)O)cc3n2C1=O | > 10000 |  |
| CC1=C(C(=O)N2CCOCC2)Cn2c(c(C3CCCCC3)c3ccc(C(=O)NS(=O)(=O)N(C)C)cc32)-c2ccccc21 | 10 to 1000 |  |
| COC(=O)c1ccc2c(C3CCCCC3)c3n(c2c1)CC(C(=O)N1C[C@@H](C)O[C@@H](C)C1)=Cc1c(OC)cccc1-3 | > 3300 |  |
| COc1cc2c(cn1)-c1c(C3CCCCC3)c3ccc(C(=O)O)cc3n1CC(C(=O)N1C[C@@H](C)O[C@@H](C)C1)=C2 | 1000 to 10000 |  |
| COC(=O)c1ccc2c(C3CCCCC3)c3n(c2c1)C(O)c1cc(N(C)C)ccc1-3 (centres unmarked) |  | IC50 ([2]; preincubation protocol): > 4000 nM |
| COC(=O)C1=Cc2occc2-c2c(C3CCCCC3)c3ccc(C(=O)OC)cc3n2C1 |  | IC50 ([2]; preincubation protocol): > 12500 nM |
| COC(=O)c1ccc2c(C3CCCCC3)c3n(c2c1)CC(C(=O)O)=Cc1occc1-3 |  | IC50 ([2]; preincubation protocol): 1000 to 10000 nM |
| COC(=O)c1ccc2c(C3CCCCC3)c3n(c2c1)CC(C(=O)NCC=O)=Cc1cc(OC)ccc1-3 |  | IC50 ([2]; preincubation protocol): 10 to 1000 nM |
| COC(=O)C1=Cc2cc(N(C)C)ccc2-c2c(C3CCCCC3)c3ccc(C(=O)OC)cc3n2C1 |  | IC50 ([2]; preincubation protocol): > 12500 nM |
| COC(=O)c1ccc2c(C3CCCCC3)c3n(c2c1)CC(C(=O)N1CCOCC1)=Cc1occc1-3 |  | IC50 ([2]; preincubation protocol): > 4000 nM |
| COC(=O)c1ccc2c(C3CCCCC3)c3n(c2c1)CC(C(=O)N1C[C@@H](C)O[C@@H](C)C1)=Cc1occc1-3 |  | IC50 ([2]; preincubation protocol): > 4000 nM |
| O=C(NS(=O)(=O)C1CC1)c1ccc2c(C3CCCCC3)c3n(c2c1)CC(C(=O)N1CCOCC1)Cc1ccccc1-3 (centres unmarked) [drawing 288] |  | IC50 [2, 3]: 20 to 1000 nM |
| O=C(NS(=O)(=O)C1CC1)c1ccc2c(C3CCCCC3)c3n(c2c1)CC(C(=O)N1CCOCC1)Cc1ccccc1-3 (centres unmarked) [drawing 289] |  | IC50 [2, 3]: 20 to 1000 nM |
| COC(=O)c1ccc2c(C3CCCCC3)c3n(c2c1)CC(C(=O)OCc1ccccc1)=Cc1ccccc1-3 [drawing 322] |  | IC50 [2, 3]: > 1000 nM |
| CS(=O)(=O)NC(=O)c1ccc2c(C3CCCCC3)c3n(c2c1)CC(C(=O)N1CCOCC1)Cc1ccccc1-3 (centres unmarked) [drawing 348] |  | IC50 [2, 3]: 20 to 1000 nM |
| CS(=O)(=O)NC(=O)c1ccc2c(C3CCCCC3)c3n(c2c1)CC(C(=O)N1CCOCC1)Cc1ccccc1-3 (centres unmarked) [drawing 349] |  | IC50 [2, 3]: 20 to 1000 nM |
